# Experimental data reported in patent publication US8524686B2, “Composition for prevention or treatment of eye diseases” (Benebiosis Co., Ltd., priority 2008, dated 2013).
# Columns and labels:
# VE-cadherin = test: Immunofluorescence microscopy of VEGF-induced intercellular adhesion (VE-cadherin staining) in HREC; assay type: cell-based, human; conditions: VEGF-stimulated HREC, one hour after VEGF stimulation, FIG. 7 C
# Procedure: (§1) Human retinal endothelial cells (HREC) were acquired from Sciencell (USA). The cells were cultured in sterilized endothelial cell medium (ECM, Sciencell, USA), and kept in a humidified 5% CO2 incubator at 37° C. Passages 4 to 6 of the HREC were used for testing.
# (§2) HREC were inoculated onto 12 mm n-sterilized, gelatin-coated coverslip of 6-well tissue culture plate. In the presence or absence of sialyllactose, HREC were immobilized with 3.7% formalin with or without treatment with VEGF. Then, the cells were passed through […] Triton X-100 in PBS and washed three times with PBS. Non-specific sites were blocked with PBS-containing 1% bovine serum albumin, while gently shaking at ambient temperature for 30 minutes. After immersing the cells in a solution of FAK, paxillin, vincullin and VE-cadherin antibodies, the cells were incubated overnight at 4° C. After washing with PBS, the cells were further reacted with Alexa Flour 594-conjugate goat anti-mouse IgG (Molecular Probes, USA) and Alexa Flour 488-conjugate goat anti-rabbit IgG (Molecular Probes, USA) at ambient temperature for 1 hour. After washing with PBS, analysis was carried out by fluorescence microscopy. Primary antibodies previously bound to antigens or secondary antibodies were used as negative control. […]
# TNF-α = test: RT-PCR of TNF-α RNA transcripts in corneal epithelial cells of EDE mice; assay type: in vivo, murine
# Procedure: (§3) 6 to 8 weeks old C57BL/6 mice (Central Lab Animal, Seoul, Korea) were used for mouse model for dry eye syndrome. All animals were treated according to the ARVO Statement for the Use of Animals in Ophthalmic and Vision Research. Experimental dry eye (EDE) was induced by subcutaneous injection of 0.5 mg/0.2 mL scopolamine hydrobromide (Sigma-Aldrich, St. Louis, Mo.) in alternating hindquarters administered four times a day (9 AM, […], 3 PM and 6 PM) and by exposure to air and ≦40% ambient humidity for 18 hours per day, as previously reported (23). Four experimental groups were evaluated: untreated group (UT), EDE group (control), EDE+sialyllactose (1 mg/kg) group and EDE+sialyllactose (5 mg/kg) group.
# (§4) Corneal and conjunctival epithelial cells acquired from six eyes per each test group. Total RNA was isolated using Trizol reagent (JBI Co., Korea) and kept at −80° C. until use. cDNA was synthesized by reverse transcriptase with an oligo dT-adaptor primer from an RNA PCR kit (Bioneer, Korea) according to the manufacturer's recommended protocol. […] In RT-PCR assay, utilization of the same quantity of mRNA was confirmed by analyzing expression level of mGAPDH. […]
# (§5) The level of RNA transcripts encoding MMP-9, IL-1β, TNF-α and the housekeeping gene GAPDH were evaluated by RT-PCR using the total RNA of the corneal epithelial cells obtained from each group (UT, EDE and EDE+sialyllactose). […]
# FAK = test: Immunofluorescence microscopy of anti-FAK stained focal adhesions in VEGF-stimulated HREC; assay type: cell-based, human; conditions: HREC stimulated with 50 ng/mL VEGF, FIG. 6 C
# Procedure: as §1, §2
# IL-1β = test: RT-PCR of IL-1β RNA transcripts in corneal epithelial cells of EDE mice; assay type: in vivo, murine
# Procedure: as §3, §4, §5
# [1] = system: experimental dry eye (EDE) mice; test: Measurement of tear production with cotton thread in mouse model of dry eye; assay type: in vivo, C57BL/6 mice; conditions: for Tear production (thread's wet length): n = 6, cotton thread 60 seconds
# Procedure: as §3
# Tear production was measured with cotton thread (Zone-quick; Oasis). The thread was held with jeweler forceps and applied to the ocular surface in the lateral canthus for 60 seconds. Wetting of the thread was measured in millimeters, using the scale on the cotton thread.
# Tear production at the ocular surface in the lateral canthus from the UT, EDE and two treatment groups (6 eyes/group/experiment, in four different sets of experiments) was measured with cotton thread.
# paxillin = test: Immunofluorescence microscopy of anti-paxillin stained focal adhesions in VEGF-stimulated HREC; assay type: cell-based, human; conditions: HREC stimulated with 50 ng/mL VEGF, FIG. 6 G
# Procedure: as §1, §2
# murine MMP-9 = test: SDS-PAGE gelatin zymography of corneal and conjunctival epithelial cells of EDE mice; assay type: in vivo; conditions: FIG. 3
# Procedure: as §3
# In order to determine the relative concentration of gelatinases in corneal and conjunctival epithelial cells, SDS-PAGE gelatin zymography was performed by using a previously reported method (24). Tissue was homogenized in a sample buffer containing 50 mM Tris-HCl (pH 8.0), 150 mM NaCl, 0.02% NaN3, […] phenylmethylsulfonyl fluoride (PMSF) and 1% Triton X-100. […]
# Gelatinolytic activity (105 kDa gelatinolytic band corresponds to murine MMP-9) was evaluated in corneal and conjunctival epithelial cells acquired from the UT, EDE and two treatment groups.
# MMP-9 = test: RT-PCR of MMP-9 RNA transcripts in corneal epithelial cells of EDE mice; assay type: in vivo, murine
# Procedure: as §3, §4, §5
# AKT = test: Western blotting of VEGF-induced AKT activation in HREC; assay type: cell-based, human; conditions: FIG. 4
# Procedure: as §1
# (§6) HREC were homogenized in a buffer containing 50 mM Tris-HCl (pH 8.0), 150 mM NaCl, 0.02% NaN3, 100 μg/mL PMSF, 1 μg/mL aprotinin and 1% Triton X-100. Protein concentration was measured using a Bio-Rad protein assay (Bio-Rad, USA). Thirty (30) μg of the total cell lysate sample was separated by SDS-PAGE based on size, and subjected to electrophoretic migration toward a nitrocellulose membrane using a Hoefer electrophoresis system (Amersham Biosciences, UK). For detection of target protein, the membrane was reacted with p-AKT, ERK, p-ERK, VEGFR-2 (flk-1, Q-20), VE-cadherin, FAK, paxillin, vincullin (SantaCruz Biotechnology, USA) and p-VEGFR-2 (Cell Signaling Tech., USA) antibodies. Detection was carried out using secondary horseradish peroxidase-bound anti-rabbit IgG antibody, anti-goat IgG antibody and anti-mouse IgG antibody (SantaCruz Biotechnology, USA), and using ECL chemiluminescence system (Amersham Biosciences, UK).
# (§7) VEGF-mediated VEGFR-2 activation plays an important role in tumor angiogenesis via the activation of VEGFR-2 downstream signal pathways in endothelial cells (25). […]
# VEGFR-2 = molecular target: T1, VEGFR-2 (Homo sapiens, UniProt P35968); test: Western blotting of VEGF-stimulated VEGFR-2 phosphorylation in HREC; assay type: cell-based; conditions: endothelial cells (HREC), concentration-dependent, FIG. 4
# T1 construct: host or cells: human retinal endothelial cells (HREC), passages 4 to 6
# Procedure: as §1, §6, §7
# [2] = system: human retinal endothelial cells (HREC); test: Tube formation assay on Matrigel, VEGF-stimulated HREC; assay type: cell-based; conditions: 24 hours, concentration-dependent, FIG. 5
# Procedure: as §1
# Sialyllactose's inhibition effect against HREC's capillary-like network induced by VEGF was investigated using Matrigel-coated 24-well culture plate. Matrigel (13.9 mg/mL) was melted overnight at 4° C. and mixed with ECM medium at a ratio of 1:1. After adding 70 μL of Matrigel (6.95 mg/mL) diluted with ECM to each well of the 24-well culture plate, polymerization was performed for 1 hour at 37° C. For evaluation of tube formation, HREC were detached from the tissue culture plate, washed, resuspended in ECM medium containing 1% FBS (1×10^4 cells/well), and added to the Matrigel-coated well in the presence or absence of VEGF along with sialyllactose at various concentrations. The plate was incubated in a 5% CO2 incubator for 24 hours at 37° C., and capillary-like tube formed in each well of the plate was photographed using a Nikon optical microscope.
# The VEGF-mediated VEGFR-2 activation is closely associated with the angiogenic action of endothelial cells such as proliferation, migration, survival and tube formation (25). […]
# [3] = corneal epithelial cells, EDE group treated with sialyllactose, FIG. 2
# T1 sequence (P35968 20-1356): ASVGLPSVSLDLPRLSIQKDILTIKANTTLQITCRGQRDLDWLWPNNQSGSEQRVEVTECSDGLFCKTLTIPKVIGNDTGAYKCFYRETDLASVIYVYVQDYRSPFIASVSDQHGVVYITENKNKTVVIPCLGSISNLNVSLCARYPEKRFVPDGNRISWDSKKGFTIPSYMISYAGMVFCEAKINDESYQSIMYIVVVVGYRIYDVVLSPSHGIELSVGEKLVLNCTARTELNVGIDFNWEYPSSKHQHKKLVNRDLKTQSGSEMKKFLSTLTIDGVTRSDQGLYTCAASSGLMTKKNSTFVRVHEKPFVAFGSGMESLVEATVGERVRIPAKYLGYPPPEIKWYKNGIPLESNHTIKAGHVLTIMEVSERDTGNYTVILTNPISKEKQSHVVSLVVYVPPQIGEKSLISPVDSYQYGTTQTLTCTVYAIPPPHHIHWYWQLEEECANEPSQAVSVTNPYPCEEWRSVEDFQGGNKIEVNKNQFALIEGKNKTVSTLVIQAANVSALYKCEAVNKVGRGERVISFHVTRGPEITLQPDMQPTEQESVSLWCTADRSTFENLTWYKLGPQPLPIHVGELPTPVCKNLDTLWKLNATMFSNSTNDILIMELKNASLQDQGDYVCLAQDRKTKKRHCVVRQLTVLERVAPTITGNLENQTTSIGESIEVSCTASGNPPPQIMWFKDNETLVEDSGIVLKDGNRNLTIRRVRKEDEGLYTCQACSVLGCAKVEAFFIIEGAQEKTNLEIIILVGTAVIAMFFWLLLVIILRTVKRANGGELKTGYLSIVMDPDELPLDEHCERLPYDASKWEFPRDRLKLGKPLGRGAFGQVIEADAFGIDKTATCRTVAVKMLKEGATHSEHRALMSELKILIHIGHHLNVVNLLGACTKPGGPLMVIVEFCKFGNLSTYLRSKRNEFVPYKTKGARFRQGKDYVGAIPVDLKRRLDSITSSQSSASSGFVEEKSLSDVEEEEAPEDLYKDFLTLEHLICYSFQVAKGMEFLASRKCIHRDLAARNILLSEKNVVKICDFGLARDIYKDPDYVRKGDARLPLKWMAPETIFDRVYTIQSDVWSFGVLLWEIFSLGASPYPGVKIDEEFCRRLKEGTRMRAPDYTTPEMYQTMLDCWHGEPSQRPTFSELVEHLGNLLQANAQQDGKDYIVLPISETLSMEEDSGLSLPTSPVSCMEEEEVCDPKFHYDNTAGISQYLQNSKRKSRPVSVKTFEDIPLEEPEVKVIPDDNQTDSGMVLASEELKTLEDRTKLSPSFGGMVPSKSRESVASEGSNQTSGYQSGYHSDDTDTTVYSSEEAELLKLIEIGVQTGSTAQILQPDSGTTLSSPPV
smiles,measurement,setting,value
"CC(=O)N[C@H]1[C@H]([C@H](O)[C@H](O)CO)O[C@@](O[C@H]2[C@@H](O)[C@@H](CO)O[C@@H](O[C@H]3[C@H](O)[C@@H](O)C(O)O[C@@H]3CO)[C@@H]2O)(C(=O)O)C[C@@H]1O (stereo partly drawn) [sialyllactose, Neu5Ac α-2,3-D-Gal β-1,4-D-Glc]",Sharp and continuous intercellular contact areas (VE-cadherin staining),VE-cadherin,recovered
same,"Decrease in expression of TNF-α gene, 5 mg/kg compared with 1 mg/kg group",TNF-α; EDE + sialyllactose 5 mg/kg,larger decrease
same,Level of TNF-α transcripts,TNF-α; [3],decreased
same,Focal adhesions immunostained with anti-FAK,FAK,markedly inhibited
same,"Decrease in expression of IL-1β gene, 5 mg/kg compared with 1 mg/kg group",IL-1β; EDE + sialyllactose 5 mg/kg,larger decrease
same,Level of IL-1β transcripts,IL-1β; [3],decreased
same,Tear production versus EDE group,[1]; EDE + sialyllactose test groups (1 and 5 mg/kg),statistically significant increased tear production
same,Tear production (thread's wet length),[1]; EDE mice + sialyllactose 1 mg/kg,1.55 ± 0.48 mm
same,Tear production (thread's wet length),[1]; EDE mice + sialyllactose 5 mg/kg,1.45 ± 0.34 mm
same,Recruitment and increase of anti-paxillin immunostaining of focal adhesions,paxillin,certainly blocked
same,"Gelatinolytic activity (105 kDa band, MMP-9)",murine MMP-9; EDE + sialyllactose 1 mg/kg,decreased gelatinolytic activity
same,"Gelatinolytic activity (105 kDa band, MMP-9)",murine MMP-9; EDE + sialyllactose 5 mg/kg,decreased gelatinolytic activity
same,"Decrease in expression of MMP-9 gene, 5 mg/kg compared with 1 mg/kg group",MMP-9; EDE + sialyllactose 5 mg/kg,larger decrease
same,Level of MMP-9 transcripts,MMP-9; [3],decreased
same,VEGF-induced AKT activation,AKT,markedly reduced
same,VEGF-stimulated VEGFR-2 phosphorylation,VEGFR-2,strongly reduced
same,Width and length of the tube,[2],significantly reduced
